{
  "source": "patent US20120027777A1",
  "about": "“LJUNGAN VIRUS WITH IMPROVED REPLICATION CHARACTERISTICS” (APODEMUS AB, priority 2009, published 2012)",
  "test_system": "GMK cells",
  "assay": "Cellular DNA degradation by electrophoresis",
  "format": "cell-based, Green Monkey",
  "details": "uninfected GMK cells, 16 h treatment, 0.5 μM, positive control",
  "method": "Degradation of chromosomal DNA is one of the hallmarks of apoptotic cells. DNA degradation in GMK cells infected with 145SL and 145SLG as well as recombinant derivatives of these viruses was assayed as previously described by with some minor modifications. Briefly, subconfluent GMK cells in T25-flasks were infected with 0.5 mL of virus lysates generated from viral cDNA clones by transfection and subsequent blind passage as previously described. […] Lysis of cells was induced using 0.2% Triton X-100, 0.5 mM EDTA in 10 mM Tris-HCl, pH 7.4. Fragmented chromatin was released from cell nuclei by vortexing. The nucleic components were separated (20,000×g for 10 min at 4° C.) and the nucleic acids in the supernatant fraction were precipitated. After precipitation, the nucleic acids were washed in 70% ethanol and dissolved in 50 μl TE buffer (1 mM EDTA, 10 mM Tris-HCl, pH 7.4). The RNA fraction of isolated nucleic acids was degraded using RNase A (10 μg/ml for 30 min at 37° C.). Finally, 1 μg isolated nucleic acids of each sample were separated by electrophoresis in a 1.5% agarose gel. Apoptosis in control cells was induced by a 16 h treatment of GMK cells with 0.5 μM staurosporine (Sigma), a broad spectrum protein kinase inhibitor [10]. The nucleic acids from these control cells were otherwise treated in the same way as described for cells infected with LV.",
  "data": [
    {"smiles": "CN[C@@H]1C[C@H]2O[C@@](C)([C@@H]1OC)n1c3ccccc3c3c4c(c5c6ccccc6n2c5c31)C(=O)NC4", "note": "[staurosporine]", "values": [
      {"measurement": "DNA fragmentation", "result": "expected processing of the nuclear DNA"}
    ]}
  ]
}
